Experimental data as given in patent publication US12053480B2, “Methods and pharmaceutical compositions for treating peripheral demyelinating diseases” (INSERM (INSTITUT NATIONAL DE LA SANTE ET DE LA RECHERCHE …, priority 2015, dated 2024).
Where two headings read alike, the source gives them in different places.

Experiments:
CMT1A rats = assay: Sciatic nerve morphometry (toluidine blue, electron microscopy) in CMT1A rats; format: in vivo, rat
Method: (§1) Sciatic nerves of 20 and 28 weeks old diabetic mice or 16 and 24 weeks old CMT1A rats treated with TRO19622 drug or PBS were fixed for 20 min in situ with 4% PFA and 2.5% glutaraldehyde, in 0.1 M phosphate buffer (pH7.3). Then nerves were removed and postfixed overnight in the same buffer.
(§2) After washing 30 min in 0.2M PBS phosphate buffer, the nerves were incubated with 2% osmic acid in 0.1M phosphate buffer for 90 minutes at room temperature. Then, samples were washed in 0.2M PBS phosphate buffer, dehydrated using ethanol gradient solutions and embedded in epoxy resin. For electron microscopy of sciatic nerves, ultrathin (70 nm) cross-sections were cut and stained with 1% uranylacetate solution and lead-citrate and analyzed using a HITACHI H7100 electron microscope at the ‘Centre des Resources en Imagerie Cellulaire’ (CRIC) (for further details see Cotter et al., 2010^9). Semi-thin cross-sections (0.7 μm) were cut using a microtome (Leica, RM 2155) with a diamond knife (Histo HI 4317, Diatome). Sections were stained with blue of toluidine and observed using light microscope. G-ratio was determined using GRatioCalculator plugin of Image J. At less 200 fibers per animal were analysed.
While demyelinating diabetes peripheral neuropathy is a commonly acquired disease, demyelination is also the characteristic feature of a large number of inherited diseases called Charcot-Marie-Tooth diseases (CMT). We therefore sought to test whether the inhibition of VDAC1 function could prevent demyelination in these diseases. We choose CMT1A rat strain^42 as this is arguably the most representative animal model of Charcot-Marie-Tooth disease, mimicking CMT1A the most prevalent CMT in humans^10. Twelve weeks old CMT1A rats were daily treated with TRO19622 for 15 or 30 days and one day or two months after treatment, we analyzed MAPK demyelination pathways by western blot. […] However, these effects disappeared two months after treatment. Then we analyzed phospho-c-jun activation in mSC using immunohistochemistry. […] Next, we measured Schwann cell demyelination and g-ratio by toluidine blue staining on semi-thin sciatic nerve sections and on thin sections using electron microscopy.

[1] = cited from earlier work
diabetic (db/db) mice = assay: Sciatic nerve myelin morphometry (toluidine blue, TEM) in diabetic mice; format: in vivo, mouse; settings: diabetic mice treated daily for one month
Method: as §1
as §2, with “Semi-thin cross-sections (0.7 μm) were cut using a microtome (Leica, RM 2155) with a diamond knife (Histo HI 4317, Diatome). Sections were stained with blue of toluidine and observed using light microscope.” left out
To go further 16-weeks-old diabetic and control mice were treated daily with vehicle or TRO19622 for one month. One day and two months after drug treatment, myelin was evaluated in the sciatic nerve using toluidine blue staining and transmission electron microscopy (TEM) to measure the g-ratio (axon diameter on total myelinated fiber diameter).

VDAC1 = target: T1, VDAC1 (Mus musculus, UniProt Q60932); assay: Cytoplasmic calcium imaging (GCaMP2, multiphoton) in mSC of mouse sciatic nerve; format: in vivo
T1 construct: strongly expressed in mSC mitochondria; from tissue; host or cells: myelinating Schwann cells (mSC) of the sciatic nerve of living mice (wild type; db/db and +/db in A10)
Method: Mice were anesthetized with isoflurane inhalation and placed under a Stemi2000 microscope (Zeiss). Incision area was shaved and cleaned using betadine solution. After incision, the gluteus superficialis and biceps femoris muscles were separated to reveal the cavity traversed by the sciatic nerve. The nerve was lift out using spatula and a thin glass needle filled with viral solution (8 μl) was introduced into the nerve with a micromanipulator. This solution was injected over 30 min with short pressure pulses using a Picospritzer III (Parker Hannifin) coupled to a pulse generator. After injection, the nerve was replaced into the cavity, the muscles were readjusted, and the wound was closed using clips (for further details see Gonzalez et al., 2014^3).
TRO19622 drug (Tocris bioscience, Ref. 2906) was diluted in ethanol to 20 mM and then, the solution was diluted in sterile PBS to 20 μM. TRO19622 treatments were realized by 3 mg/kg intraperitoneal (IP) injections of 20 mM solution or by intra sciatic nerve injections of 2 μl of drug solution 2 μM using a Hamilton syringe or a glass needle in sterile conditions 30 minutes before multiphoton image acquisitions or immunohistochemistry and demyelination studies respectively. Methyl jasmonate drug (Sigma-Aldrich, Ref. 392707) was diluted in 1 ml of sterile PBS to 1M or 3M. Methyl jasmonate treatments were realized by intra sciatic nerve injections of 1 μl of drug solution using a glass needle and micromanipulator in sterile conditions following the same virus injections procedure (see in vivo virus injection in the sciatic nerve method) two hours before multiphoton image acquisition. […] All drug concentrations were previously evaluated by Bordet et al, 2007^5; Goldin et al, 2008^6; Sharov et al, 2007^7.
First injected mouse was anesthetized with 5% of isoflurane a 1.5% of oxygen into the anesthesia system box (World Precision Instruments, Ref. EZ-B800) for 5 minutes. Anesthesia controls were realized^8. Then, mouse was placed in anesthesia mask and the incision area was shaved and cleaned with betadine and ethanol 70% solution. Incision was realized using a scalpel and the skin was retracted using forceps in order to expose the gluteus superficialis and bleeps femoris muscles. Next, the connective tissue that connects both muscles was cut and the sciatic nerve was gently lifted out using a spatula. A flexible bridge was slide below sciatic nerve and it was placed into a plastic first pool fixed to the bridge. Mouse was placed under the multiphoton microscope, the bridge was fixed using magnetic brackets to avoid physiological movement and mouse legs were fixed using clippers. Microscope dark box temperature is controlled to 37° C. during all time-lapse imaging. Finally, a second pool was fixed to the first pool using a drop of agarose low melting 3% (Promega, Ref. V2111) in Leibovitz's L15 medium (Gibco Life Technologies) and filled with deionized water to immerse the objectives 20× or 63× (Carl Zeiss Microscopy).
All time-lapse images were obtained with a multiphoton microscope Zeiss LSM 7 MP OPO. Mitochondria motility images were acquired by time-lapse recording of one image every five minutes during five hours at 920 nm. GCaMP2 and SypHer probe images were acquired by time-lapse recording of one image every fifteen minutes during five hours at 985 nm. Images were acquired to constant 1% of laser intensity to 100 msec of acquisition time with 512×512 resolution and 10 images of z-stack of 20 μm. Images were saved in Zeiss .czi format and processed using Image J program. For further details see Gonzalez et al., 201X^8
To characterize mitochondria physiology during the demyelination process we combined two in vivo methods. We used the nerve crush model to reliably induce demyelination in the mouse sciatic nerve and a viral approach^19 allowing the expression of different fluorescent probes selectively into mitochondria of myelinating Schwann cells (mSC) in mouse sciatic nerve. […]

T1 sequence (Q60932 14-296): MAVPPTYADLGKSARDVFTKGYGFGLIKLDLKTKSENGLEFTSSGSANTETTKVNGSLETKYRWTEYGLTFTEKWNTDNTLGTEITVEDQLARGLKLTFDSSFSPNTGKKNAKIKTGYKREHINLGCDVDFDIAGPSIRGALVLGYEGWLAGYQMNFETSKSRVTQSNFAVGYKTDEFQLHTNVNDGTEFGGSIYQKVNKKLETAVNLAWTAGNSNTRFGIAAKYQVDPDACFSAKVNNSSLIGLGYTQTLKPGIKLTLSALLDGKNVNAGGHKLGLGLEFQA

part of the calcium appearing in the cytoplasm after nerve crush that is not abolished (non-mitochondrial origin) (VDAC1; after nerve crush with VDAC1 silenced or blocked): 13%
presence of cytoplasmic calcium in mSC after crush (VDAC1; cytoplasmic GCaMP2, after nerve crush): strong reduction
SMILES: CC(C)CCC[C@@H](C)[C@H]1CC[C@H]2[C@@H]3CCC4=C/C(=N\O)CC[C@]4(C)[C@H]3CC[C@]12C [TRO19622, (NZ)—N-[(8S,9S,10R,13R,14S,17R)-10,13-dimethyl-17-[(2R)-6-methylheptan-2-yl]-1,2,6,7,8,9,11,12,14,15,16,17-dodecahydrocyclopenta[a]phenanthren-3-ylidene]hydroxylamine]
g-ratio of myelinated fibers (CMT1A rats): significant increase
number and diameter of axons in the nerve (CMT1A rats): increased
number of demyelinated fibers (CMT1A rats): reduction
g-ratio of myelinated fibers (CMT1A rats; listed as TRO16922): restored a correct g-ratio
number and diameter of axons in the nerve (CMT1A rats; listed as TRO16922): rescued axonal loss
safety in humans [1]: safe
axon number and diameter (diabetic (db/db) mice): No differences
g-ratio (diabetic (db/db) mice; compared to vehicle): significant decrease
